Results from publication PMC5299588, “Lumican Peptides: Rational Design Targeting ALK5/TGFBRI” (Scientific Reports, 2017).
“Also recorded” adds a separate entry of the source. No end group written: not given here.

Legend:
[1] = system: corneal epithelium; assay: In vivo corneal epithelium debridement wound healing in Lum−/− mice, peptide eye drops; design: species or system C57BL/6 genetic background; settings: drops 0.3 μM every 15 min for 5 h
Description: Lum null (Lum^−/−) mice were also used to examine the efficacy of LumC peptides in promoting epithelium sheet migration following debridement wound (Supplemental Fig. S2).
(§1) Use of experimental mice is in compliance to the ARVO statement for the use of animals in vision research and all procedures are approved by IACUC of the University of Cincinnati. Lum^−/− mice in C57BL/6 genetic background aged 7–8 weeks were used in this study. Mice were anesthetized with intraperitoneal injections of a combination of ketamine (10 mg/kg; Henry Shein) and xylazine (1 mg/kg; Henry Shein) prior to the surgery, and a drop of proparacaine hydrochloride 0.5% (Alcon) was applied to the cornea to deliver local anesthesia before injury. Briefly, a 2 mm diameter trephine was used to demarcate the central epithelial region of the eye and the epithelium within the demarcated region was mechanically removed using an Algerbrush II (Alger Equipment Co., Inc., Lago Vista, TX) while viewing the cornea under a stereomicroscope (Stemi SC II stereomicroscope with epi-fluorescence attachment, Carl ZEISS). Eight mice per group were treated and the experiments were repeated at least two times. Each mouse was topically treated with one drop peptide solution (10 μl) at concentration of 0.3 μM or 10 μL PBS every 15 min for 5 h after wounding. After 5 h, mice were sacrificed. The eyes were excised and fixed in 4% paraformaldehyde in PB (0.1 M phosphate buffer, pH 7.4. whole mount corneas were stained with phalloidin and DAPI and image with a Zeiss Apo Tome microscope (Observer Z1). The migration of epithelium sheet was determined as previously described. In brief, migrated corneal epithelium was measured on whole mount samples in 5 different locations equally distributed around the entire circumference of the wound. The number of animals in each experimental group is on the bars in the bar chart. The statistical analyses as well as symbols are shown in the graph legend. PBS treated Lum^−/− mice were used as negative controls, in which the epithelium sheet migrated less than 50 μm in 5 h (Supplemental Fig. 2 for representative plots). Four Z-staged images were collected from each corneas, the epithelium migration was determined by the distance of migration of epithelium front to the initial injured line as previously described.

[2] = target: T1, ALK5 (Homo sapiens, UniProt P36897); assay: kcat/Km of peptides and loss of binding outside EVTLN region; settings: method not described
T1 sequence (P36897 34-503): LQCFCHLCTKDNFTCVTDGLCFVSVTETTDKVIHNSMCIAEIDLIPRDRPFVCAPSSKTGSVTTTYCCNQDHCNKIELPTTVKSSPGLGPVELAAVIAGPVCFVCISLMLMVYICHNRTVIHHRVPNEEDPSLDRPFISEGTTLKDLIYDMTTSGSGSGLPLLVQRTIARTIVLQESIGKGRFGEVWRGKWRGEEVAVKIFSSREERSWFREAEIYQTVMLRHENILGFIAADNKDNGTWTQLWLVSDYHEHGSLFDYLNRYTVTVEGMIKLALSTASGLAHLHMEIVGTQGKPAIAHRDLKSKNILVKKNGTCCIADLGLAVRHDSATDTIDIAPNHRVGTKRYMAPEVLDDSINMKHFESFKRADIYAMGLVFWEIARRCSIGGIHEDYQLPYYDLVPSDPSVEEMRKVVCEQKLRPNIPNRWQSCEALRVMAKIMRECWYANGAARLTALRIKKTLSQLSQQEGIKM

[3] = system: corneal epithelium; assay: In vivo corneal epithelium debridement wound healing in mice, peptide eye drops; design: species or system mouse; settings: for promotion of corneal epithelium wound healing: debridement wound, eye drops 0.3 μM every 15 min for 5 h
Procedure: To confirm peptide action promoting corneal epithelium wound healing in vivo, mice were subjected to a 2 mm with corneal epithelium debridement. The injured corneas were treated with 10 μl eye drops lumican peptides (0.3 μM) every 15 min for 5 h as previously described. Migration distance was measured between the original wound edge and the wound front. In Lumikine (LumC13C-A) treated corneas, the epithelium sheet moved ∼144 μm. […] The average epithelium migration (μm) and standard deviation were calculated from n corneas of each of two separate experiments.
as §1

[4] = target: T1, ALK5; assay: Binding affinity (Kd) of designed peptide; settings: method not described; highest affinity in all designed peptides
[5] = target: T1, ALK5; settings: cited from earlier work
Description: Proteoglycans (PGs) are complex polymers composed of a core protein to which one or more glycosaminoglycan (GAGs) chains are covalently attached. They play a central role in physiology and disease[1][2][3][4][5][6]: modulating cell metabolism, mediating cell-cell trafficking, providing support for connective tissue and regulating of a wide range of effectors at both systemic and cellular levels. Small leucine rich proteoglycans (SLRPs) are a family of proteoglycans with small core proteins (~40 Kd) that contain hyper variable glycosylation sites with multivalent binding abilities. […] In this present study, we have accessed the binding of rationally designed LumC peptides with a related scoring approach, MM-GBSA, after docking and molecular dynamics simulations. In this method, docking scores are used to define initial binding sites, and more expensive and rigorous methods such as molecular dynamics (MD) simulation and binding free ...

[6] = system: prostate cancer cell; settings: cited from earlier work
Description: This could be of particular interest in conditions where patients display delayed wound healing, such as diabetes, which culminates in an increased risk of inflammation and scarring. The significance of synthesizing lumican peptides that mediate TGFbRI signaling also goes beyond promoting skin and corneal wound healing.

[7] = Mass spectrometry of LumC13 in solution (dimerization); format: physicochemical; settings: peptide in solution

With “IKHLRLDGEVTLN [Hybrid 1/3, hybrid peptide …]” the “promotion of epithelium wound healing / migration” value [1] was “little effect promoting wound healing”.

In the case of “IKHLRLDGNRISE [LumC33ΔC20, Lumican peptide …; control peptide]”, the kcat/Km [2] is reported as under 100 M⁻¹ s⁻¹, the “promotion of corneal epithelium wound healing” value [3] is reported as “did not promote epithelium wound healing” and the “promotion of epithelium wound healing / migration” value [1] is reported as “little effect promoting wound healing”.

For LPPDMYECEVTLN [Hybrid 2/3], the Kd [4] was 28.7 ± 3.9 µM.

With “LPPDMYECLRVAN [LumC18ΔC5, Lumican peptide …]” the “promotion of epithelium wound healing / migration” value [1] was “little effect promoting wound healing”.

In the case of “Lumican: class II SLRP member, one of the major proteoglycans in the corneal stroma”, the “wound healing via C-terminal domain / TGFβRI interaction” value [5] is given as “promotes wound healing via its C-terminal domain due to its interaction with TGFβRI (ALK5)” and the “prostate cancer cell migration” value [6] is given as “inhibits prostate cancer cell migration”.

With “YEALRVANEVTLN [LumC13C-A, Lumican peptide … (Lumikine)]” the epithelium migration distance ([3]; 2 mm debridement, 10 μl eye drops 0.3 μM every 15 min for 5 h, between original wound edge and wound front) was about 144 μm, the “promotion of corneal epithelium wound healing” value [3] was “increased ability to promote wound healing” and the “promotion of epithelium wound healing / migration” value [1] was “promoted wound healing of corneal epithelium debridement of Lum^−/− mice to the same extent as injured wild type mice; also recorded: higher pharmaceutical activity of LumC13C-A compared to LumC13; also recorded: significantly promoted epithelium wound healing”. The “binding to ALK5 to promote wound healing” value ([5]; synthetic LumC13-terminal peptide YEALRVANEVTLN) was “binding ALK5 to promote wound healing”.

In the case of “YECLRVANEVTLN [LumC13, peptide designed from the 13 C-terminal amino acids of lumican, …]”, the kcat/Km [2] is reported as 1e+06 ± 4000 M⁻¹ s⁻¹, the “promotion of corneal epithelium wound healing” value [3] is reported as “increased ability to promote wound healing” and the “promotion of epithelial cell migration (words, conclusion)” value ([3]; in vitro and in vivo wound healing assays) is reported as “essential to promote epithelial cell migration to the same extent as lumican”. For the same substance, the “promotion of epithelium wound healing / migration” value [1] was “moderately increased activity in promoting wound healing when compared to LumC13C-A” and the “dimerization in solution via disulfide bond formation” value [7] was “dimerization of the LumC13 peptides in solution via disulfide bond formation of cysteine residue, which reduces the activity of dimerized LumC13”.
